# Data reported in patent US10017453B2, “Pharmaceutically acceptable salts of fatty acids” (Dignity Sciences Limited, priority 2013, dated 2018).
# Key:
# [1] = Solubility screen of as-received 15-HETrE (aliquot addition method); format: physicochemical; conditions: for solubility: organic solvent or mixture, estimated, read-out: Solubility Range
# Excerpt: This is believed to be due to degradation of 15-HETrE, therefore HFIPA was not used in any further studies of 15-HETrE.
# [2] = Storage stability up to 24 weeks, free acid versus lysine salt (FIG. 28); format: physicochemical
# Description: The 15-HETrE-lysine salt is stable at 20° C. and 40% humidity as well as at 40° C. and 75% humidity, making the lysine salt useful for pharmaceutical applications. 15-HETrE lysine salt was prepared on a larger scale for the crystallization screen as a white powder.
# [3] = Degradation of 15-(S)-HETrE on exposure to isopropyl acetate (overnight, UPLC); format: physicochemical
# Description: An experiment was conducted to examine whether any degradation would be observed upon exposure of 15-(S)-HETrE to isopropyl acetate. 15-(S)-HETrE (100 mg) was dissolved in isopropyl acetate (1 mL) and stirred overnight. This was sampled directly for UPLC analysis (Table 39).
# [4] = Reslurry of 15-(S)-HETrE lysine salt in ethyl acetate (impurity profile, NMR ratio); format: physicochemical
# Description: An experiment was conducted to determine if the ratio of 15-(S)-HETrE to lysine would change after exposure to ethyl acetate. 15-(S)-HETrE lysine salt (100 mg) was suspended in HPLC grade ethyl acetate (1 mL) and stirred vigorously overnight at room temperature. The suspension was then filtered as described in previous examples. The impurity profiles of the starting 15-(S)-HETrE lysine salt (“before slurry”) and the slurried, filtered salt (“after reslurry”) are shown in Table 25.
# NMR spectroscopy confirmed no change in the ratio of 15-(S)-HETrE-to-lysine ratio.
# [5] = 8 Day Stability 40/75% RH of solids from the salt/cocrystal screen; format: physicochemical; conditions: 8 days
# [6] = Solvent-induced degradation of 15-(S)-HETrE lysine salt (ethyl acetate or methanol, overnight, UPLC); format: physicochemical
# Description: An experiment to determine the degradation of 15-(S)-HETrE lysine salt, if any, when contacted with ethyl acetate or methanol. 15-(S)-HETrE lysine salt (100 mg) was dissolved in solvent (1 mL) and stirred overnight.
# [7] = Qualitative solubility observations of the salts; format: physicochemical
# Description: An alternative method to prepare 15-HETrE sodium salt by slurrying and avoid need for rotary evaporation could not be found. […] Scale up and characterization was completed for 15-HETrE sodium salt using rotary evaporation from 10% aqueous EtOH, then EtOH. […] Purity as measured by UPLC analysis was ˜81%.
# Products of each of the Reactions were white in appearance. Filtration was carried out with a sintered funnel (no. 3, 10 mm diameter) under mild vacuum. Some filter cake products were yellow in appearance. The first ˜200 μL of filtrate were transferred into an HPLC vial. Filtration of the remaining reaction mixture (alternating between high and medium vacuum) yielded a filter cake that was transferred to a vacuum chamber and dried overnight before being stored in a freezer.
# [8] = Chemical stability at ambient temperature under vacuum for 8 days; format: physicochemical
# Excerpt: Twenty four co-formers and acids were used to screen for stable forms of 15-HETrE but most yielded oils or gels. Salts with improved handling properties were isolated from the screen: sodium, ornithine, lysine, meglumine and piperazine, but all were poorly crystalline.
# Properties of 15-HETrE salts prepared according to Examples 4-7 were compared against each other and against 15-HETrE free acid API.
# [9] = Dynamic vapor sorption (DVS) analysis; format: physicochemical; conditions: for Hygroscopicity according to the European Pharmacopeia classification: DVS
# Excerpt: Post DVS XRPD analysis was not conducted as the material deliquesced.
# [10] = ambient temperature; probably due to uptake of moisture
# [11] = before exposure to isopropyl acetate
# [12] = in isopropyl acetate, stirred overnight
# [13] = after reslurry in ethyl acetate, overnight, room temperature
# [14] = in ethyl acetate, stirred overnight
# [15] = original salt, before solvent contact
smiles,measurement,setting,value
"CCCCCC(O)/C=C/C=C\C/C=C\CCCCCCC(=O)O (stereo not shown) [15-HETrE, 15-Hydroxy-eicosa-8(Z),11(Z),13(E)-trienoic acid]",Stability when combined with HFIPA,"[1]; 1,1,1,3,3,3-hexafluoroisopropyl acrylate (HFIPA), believed to be degradation","rapid color change from clear, colorless to blood red to deep purple/black"
same,solubility,[1]; Acetone,3.12 to 9.36 mg/mL
same,solubility,[1]; Acetonitrile (ACN),0.93 to 2.78 mg/mL
same,solubility,[1]; DCM,1.17 to 3.52 mg/mL
same,solubility,[1]; DMF,1.23 to 3.68 mg/mL
same,solubility,[1]; Dioxane,1.66 to 4.98 mg/mL
same,solubility,[1]; Ethanol (EtOH),1.26 to 3.78 mg/mL
same,solubility,[1]; Ethyl acetate (EtOAc),1.89 to 5.66 mg/mL
same,solubility,[1]; Methanol (MeOH),2.12 to 6.36 mg/mL
same,solubility,[1]; THF,3.32 to 9.96 mg/mL
same,Miscibility in solvents,[1]; ten solvents tested,miscible in all solvents tested
same,Storage stability,"[2]; stored up to 24 weeks at −20° C., 2-8° C., 25° C.",unstable and degrades at all conditions with the exception of −20 °C
same,HETrE (RRT 1) peak area,[3]; [11],91.38%
same,IMP 1 (RRT 0.62) peak area,[3]; [11],0.12%
same,IMP 2 (RRT 0.64) peak area,[3]; [11],0.51%
same,IMP 3 (RRT 0.66) peak area,[3]; [11],0.89%
same,IMP 4 (RRT 0.69) peak area,[3]; [11],0.13%
same,IMP 5 (RRT 0.72) peak area,[3]; [11],1.29%
same,IMP 6 (RRT 0.85) peak area,[3]; [11],0.16%
same,IMP 7 (RRT 0.91) peak area,[3]; [11],1.17%
same,IMP 8 (RRT 0.98) peak area,[3]; [11],0.29%
same,IMP 9 (RRT 1.03) peak area,[3]; [11],0.18%
same,IMP 10 (RRT 1.1) peak area,[3]; [11],1.41%
same,IMP 11 (RRT 1.75) peak area,[3]; [11],0.88%
same,HETrE (RRT 1) peak area,[3]; [12],85.56%
same,IMP 1 (RRT 0.62) peak area,[3]; [12],0.22%
same,IMP 2 (RRT 0.64) peak area,[3]; [12],1.48%
same,IMP 3 (RRT 0.66) peak area,[3]; [12],1.47%
same,IMP 4 (RRT 0.69) peak area,[3]; [12],0.19%
same,IMP 5 (RRT 0.72) peak area,[3]; [12],3.02%
same,IMP 6 (RRT 0.85) peak area,[3]; [12],0.43%
same,IMP 7 (RRT 0.91) peak area,[3]; [12],1.56%
same,IMP 8 (RRT 0.98) peak area,[3]; [12],0.62%
same,IMP 9 (RRT 1.03) peak area,[3]; [12],0.28%
same,IMP 10 (RRT 1.1) peak area,[3]; [12],1.79%
same,IMP 11 (RRT 1.75) peak area,[3]; [12],1.14%
"CCCCCC(O)/C=C/C=C\C/C=C\CCCCCCC(=O)O.NCCCC[C@H](N)C(=O)O (stereo not shown) [15-HETrE lysine salt, 15-Hydroxy-eicosa-8(Z),11(Z),13(E)-trienoic acid lysine salt]",HETrE (RRT 1) in impurity profile,[4]; [13],95.69
same,IMP 1 (RRT 0.62) in impurity profile,[4]; [13],0.16
same,IMP 2 (RRT 0.64) in impurity profile,[4]; [13],0.39
same,IMP 3 (RRT 0.69) in impurity profile,[4]; [13],0.16
same,IMP 4 (RRT 0.91) in impurity profile,[4]; [13],1.08
same,IMP 5 (RRT 1.03) in impurity profile,[4]; [13],0.07
same,IMP 6 (RRT 1.1) in impurity profile,[4]; [13],1.47
same,IMP 7 (RRT 1.75) in impurity profile,[4]; [13],0.11
same,HETrE (RRT 1) in impurity profile,[4]; before reslurry,96.66
same,IMP 1 (RRT 0.62) in impurity profile,[4]; before reslurry,0.04
same,IMP 2 (RRT 0.64) in impurity profile,[4]; before reslurry,0.09
same,IMP 3 (RRT 0.69) in impurity profile,[4]; before reslurry,0.11
same,IMP 4 (RRT 0.91) in impurity profile,[4]; before reslurry,1.01
same,IMP 5 (RRT 1.03) in impurity profile,[4]; before reslurry,0.15
same,IMP 6 (RRT 1.1) in impurity profile,[4]; before reslurry,1.39
same,IMP 7 (RRT 1.75) in impurity profile,[4]; before reslurry,0.26
same,Change in 15-(S)-HETrE-to-lysine ratio after reslurry,"[4]; ethyl acetate, overnight, room temperature, NMR",no change
same,8 Day Stability 40/75% RH,[5],97% purity
same,HETrE (RRT 1) peak area,[6]; [14],94.20%
same,IMP 1 (RRT 0.62) peak area,[6]; [14],0.05%
same,IMP 2 (RRT 0.64) peak area,[6]; [14],0.86%
same,IMP 3 (RRT 0.69) peak area,[6]; [14],0.96%
same,IMP 4 (RRT 0.91) peak area,[6]; [14],1.30%
same,IMP 5 (RRT 1.03) peak area,[6]; [14],0.29%
same,IMP 6 (RRT 1.1) peak area,[6]; [14],1.35%
same,IMP 7 (RRT 1.75) peak area,[6]; [14],0.14%
same,HETrE (RRT 1) peak area,"[6]; in methanol, stirred overnight",95.40%
same,IMP 1 (RRT 0.62) peak area,"[6]; in methanol, stirred overnight",0.03%
same,IMP 2 (RRT 0.64) peak area,"[6]; in methanol, stirred overnight",0.24%
same,IMP 3 (RRT 0.69) peak area,"[6]; in methanol, stirred overnight",0.45%
same,IMP 4 (RRT 0.91) peak area,"[6]; in methanol, stirred overnight",1.16%
same,IMP 5 (RRT 1.03) peak area,"[6]; in methanol, stirred overnight",0.13%
same,IMP 6 (RRT 1.1) peak area,"[6]; in methanol, stirred overnight",1.34%
same,IMP 7 (RRT 1.75) peak area,"[6]; in methanol, stirred overnight",0.31%
same,HETrE (RRT 1) peak area,[6]; [15],95.67%
same,IMP 1 (RRT 0.62) peak area,[6]; [15],0.20%
same,IMP 2 (RRT 0.64) peak area,[6]; [15],0.12%
same,IMP 3 (RRT 0.69) peak area,[6]; [15],0.27%
same,IMP 4 (RRT 0.91) peak area,[6]; [15],1.30%
same,IMP 5 (RRT 1.03) peak area,[6]; [15],0%
same,IMP 6 (RRT 1.1) peak area,[6]; [15],1.44%
same,IMP 7 (RRT 1.75) peak area,[6]; [15],0.55%
same,solubility,[7]; DMSO,insoluble
same,solubility,[7]; chloroform,insoluble
same,solubility,[7]; water,dissolves readily
same,Storage stability,[2]; 20° C. and 40% humidity,stable
same,Storage stability,[2]; 40° C. and 75% humidity,stable
same,Chemical stability,[8],chemically stable
same,Hygroscopicity according to the European Pharmacopeia classification,[9],hygroscopic
same,DVS behaviour,[9]; above 80% RH,deliquesced
same,DVS weight gain,[9]; below 70% RH,less than 1%
same,DVS additional weight gain,[9]; between 70-80% RH,1%
"CCCCCC(O)/C=C/C=C\C/C=C\CCCCCCC(=O)[O-].[Na+] (stereo not shown) [15-HETrE sodium salt, 15-Hydroxy-eicosa-8(Z),11(Z),13(E)-trienoic acid sodium salt]",8 Day Stability 40/75% RH,[5],95% purity
same,solubility,"[7]; water used in the slurry preparation, salt did not precipitate",highly soluble
same,Hygroscopicity according to the European Pharmacopeia classification,[9],very hygroscopic
same,DVS weight gain,[9]; below 40% RH,less than 1%
same,DVS behaviour,[9]; high RH,deliquesced
"C1CNCCN1.CCCCCC(O)/C=C/C=C\C/C=C\CCCCCCC(=O)O (stereo not shown) [15-HETrE piperazine salt, 15-Hydroxy-eicosa-8(Z),11(Z),13(E)-trienoic acid piperazine salt]",Behaviour on exposure to air,[10],appears to flow on exposure to air at ambient temperature
